Assays:
KOR = KOR (Homo sapiens, UniProt P41145); test: NanoBiT-based β-arrestin recruitment assay, KOR; type: cell-based; parameters: expressed in transfected cells; host or cells: U87; conditions: concentration range 0.15 nM to 80 μM; reference Dynorphin A
Procedure: (§1) The ability of the different molecules to activate the four opioid receptors MOR, DOR, KOR and NOP that are known to mediate in vivo analgesic effects was tested using the NanoBiT-based β-arrestin-2 recruitment assay in a concentration range of 0.15 nM to 80 μM. For each of these receptors a reference ligand corresponding to an endogenous opioid peptide i.e. Met-enkephalin, BAM22, Dynorphin A and Nociceptin, respectively was included.
(§2) Ligand-induced β-arrestin recruitment to chemokine and opioid receptors was monitored by NanoLuc complementation assay (NanoBiT, Promega). In brief, 1.2×10^6 U87 cells were plated in 10-cm culture dishes and 48 hours later co-transfected with pNBe vectors encoding GPCRs (ACKR3, MOR, DOR, KOR, or NOP) C-terminally tagged with SmBiT and human β-arrestin-1 (arrestin-2) or β-arrestin-2 (arrestin-3) N-terminally fused to LgBiT. 48 hours post-transfection cells were harvested, incubated 25 minutes at 37° C. with Nano-Glo Live Cell substrate diluted 200-fold and distributed into white 96-well plates (5×10^4 cells per well). Ligand-induced, β-arrestin to GPCRs was evaluated with a Mithras LB940 luminometer (Berthold Technologies, running on MicroWin 2010 5.19 software (Mikrotek Laborsysteme)) for 20 minutes.
(§3) For concentration-response curves (FIG. 2), the signal recorded with a saturating concentration of full agonist for each receptor was set as 100%. […]

mouse ACKR3 = biological target: T1, mouse ACKR3 (Mus musculus, UniProt P56485); test: NanoBiT-based β-arrestin-2 recruitment assay, mouse ACKR3 in U87 cells; type: cell-based; conditions: for agonist efficacy at mACKR3 compared to CXCL-12: NanoBiT β-arrestin-2 recruitment, reference ligand CXCL-12; for EC50: NanoBiT, U87 cells, FIG. 1 section C, read-out: EC50, β-arrestin-2 recruitment to mouse receptor (mACKR3)
T1 construct: expressed in transfected cells; host or cells: U87
T1 sequence (P56485 whole entry): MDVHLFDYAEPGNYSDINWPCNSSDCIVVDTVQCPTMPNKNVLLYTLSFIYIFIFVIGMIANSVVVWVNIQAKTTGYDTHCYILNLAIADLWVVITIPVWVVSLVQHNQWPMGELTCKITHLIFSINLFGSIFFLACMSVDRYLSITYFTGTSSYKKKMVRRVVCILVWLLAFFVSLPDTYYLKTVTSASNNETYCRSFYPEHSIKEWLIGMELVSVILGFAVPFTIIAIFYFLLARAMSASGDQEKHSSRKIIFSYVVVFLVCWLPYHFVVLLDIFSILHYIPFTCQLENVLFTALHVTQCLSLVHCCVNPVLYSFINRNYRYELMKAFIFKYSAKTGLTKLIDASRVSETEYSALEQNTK
T1 sequence (P32121 whole entry partner): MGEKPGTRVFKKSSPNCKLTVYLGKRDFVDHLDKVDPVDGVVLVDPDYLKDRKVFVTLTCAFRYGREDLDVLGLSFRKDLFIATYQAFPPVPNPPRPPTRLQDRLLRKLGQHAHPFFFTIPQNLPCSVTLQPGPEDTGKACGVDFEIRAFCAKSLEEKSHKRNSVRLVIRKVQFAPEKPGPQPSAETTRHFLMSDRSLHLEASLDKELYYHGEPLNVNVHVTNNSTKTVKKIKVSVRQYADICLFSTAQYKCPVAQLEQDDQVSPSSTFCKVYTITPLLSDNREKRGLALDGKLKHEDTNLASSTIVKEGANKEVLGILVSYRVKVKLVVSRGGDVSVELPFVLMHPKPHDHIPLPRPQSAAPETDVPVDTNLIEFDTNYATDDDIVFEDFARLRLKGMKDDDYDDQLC
Procedure: Concentration-response studies were performed with molecules WW-1 (conolidine) and WW-12 on the human and mouse ACKR3 receptors in U87 cells using a NanoBiT-based β-arrestin-2 recruitment assay […] to evaluate their efficacy and potency towards the two receptors.
as §2
For concentration-response curves (FIG. 2), the signal recorded with a saturating concentration of full agonist for each receptor was set as 100%. To evaluate the antagonist properties of ligands, full agonists of each receptor (50 nM BAM22 for MOR, 50 nM dynorphin A for KOR, 70 nM met-enkephalin for DOR, 70 nM nociceptin for NOP and 4 nM CXCL12 for ACKR3) were added after the 20-minute incubation with the ligands.

NOP = biological target: T2, NOP (Homo sapiens, UniProt P41146); test: NanoBiT-based β-arrestin-2 recruitment assay, NOP; type: cell-based; conditions: concentration range 0.15 nM to 80 μM; reference Nociceptin
T2 construct: expressed in transfected cells; host or cells: U87
T2 sequence (P41146 whole entry): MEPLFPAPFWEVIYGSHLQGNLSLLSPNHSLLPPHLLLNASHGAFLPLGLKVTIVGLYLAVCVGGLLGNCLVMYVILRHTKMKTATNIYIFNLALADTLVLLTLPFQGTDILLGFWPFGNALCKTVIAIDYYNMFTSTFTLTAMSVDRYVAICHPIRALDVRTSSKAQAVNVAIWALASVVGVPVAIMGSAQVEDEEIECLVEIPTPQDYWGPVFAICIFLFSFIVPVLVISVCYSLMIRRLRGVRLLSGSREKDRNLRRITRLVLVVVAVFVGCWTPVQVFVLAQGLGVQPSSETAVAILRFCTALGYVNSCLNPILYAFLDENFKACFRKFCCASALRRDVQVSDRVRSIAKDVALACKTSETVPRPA
Procedure: as §1, §2, §3

ACKR3 = ACKR3 (Homo sapiens, UniProt P25106); test: Binding competition assay with CXCL12-AF647 on U87-ACKR3 cells; parameters: expressed in transfected cells; host or cells: U87-ACKR3 (ACKR3-negative U87 as control); conditions: 5 nM CXCL12-AF647, FIG. 1 section D
ACKR3, sequence (P25106 whole entry): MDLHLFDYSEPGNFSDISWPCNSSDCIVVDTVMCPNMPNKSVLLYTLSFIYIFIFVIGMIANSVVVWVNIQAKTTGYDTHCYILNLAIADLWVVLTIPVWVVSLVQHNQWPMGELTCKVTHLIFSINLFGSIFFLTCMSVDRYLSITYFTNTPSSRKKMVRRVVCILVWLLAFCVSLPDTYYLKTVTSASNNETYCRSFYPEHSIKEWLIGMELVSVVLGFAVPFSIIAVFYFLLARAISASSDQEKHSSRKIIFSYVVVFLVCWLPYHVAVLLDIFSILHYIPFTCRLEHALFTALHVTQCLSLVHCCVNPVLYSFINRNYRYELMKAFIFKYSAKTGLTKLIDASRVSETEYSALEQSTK
From the text: Dead cells were excluded using Zombie Green viability dye (BioLegend). […] Ligand binding was quantified by mean fluorescence intensity on a BD FACS Fortessa cytometer (BD Biosciences) using FACS Diva 8.01 (BD Biosciences).

DOR [1] = biological target: T3, DOR (Homo sapiens, UniProt P41143); test: DOR calcium mobilization agonist/antagonist screen (CHO-RD-HGA16 cells); type: cell-based; parameters: host or cells: CHO-RD-HGA16; conditions: single concentration; for Emax: CHO-RD-HGA16, agonist screen, control agonist DPDPE
T3 sequence (P41143 whole entry): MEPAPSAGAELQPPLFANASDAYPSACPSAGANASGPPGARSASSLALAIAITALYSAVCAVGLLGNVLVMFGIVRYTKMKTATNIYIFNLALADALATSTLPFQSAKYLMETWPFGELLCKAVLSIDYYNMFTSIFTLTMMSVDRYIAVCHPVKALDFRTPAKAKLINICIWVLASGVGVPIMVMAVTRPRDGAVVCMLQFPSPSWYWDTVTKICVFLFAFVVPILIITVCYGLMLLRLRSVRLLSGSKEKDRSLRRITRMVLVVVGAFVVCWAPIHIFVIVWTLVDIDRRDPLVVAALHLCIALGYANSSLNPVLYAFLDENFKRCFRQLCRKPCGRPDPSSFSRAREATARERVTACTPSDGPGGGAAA
Procedure: (§4) Compounds were evaluated for kappa (KOR), mu (MOR), and delta (DOR) opioid receptor agonist and antagonist activity in three individual cell lines overexpressing Gαq16 (CHO-RD-HGA16, Molecular Devices) and the human kappa, mu, and delta opioid receptors, respectively. The day before the assay, cells were plated into 96-well black-walled assay plates at 30,000 cells/well in Ham's F12 supplemented with 10% fetal bovine serum, and 100 units of penicillin and streptomycin. The cells were incubated overnight at 37° C., 5% CO2. Prior to the assay, Calcium 5 dye (Molecular Devices) was reconstituted according to the manufacturer's instructions. The reconstituted dye was diluted 1:40 in pre-warmed (37° C.) assay buffer (1×HBSS, 20 mM HEPES, 2.5 mM probenecid, pH 7.4 at 37° C.). Growth medium was removed and the cells were gently washed with 100 μL of pre-warmed (37° C.) assay buffer. The cells were incubated for 45 minutes at 37° C., 5% CO2 in 200 μL of the diluted Calcium 5 dye. For the agonist screen, a single concentration of each test compound and receptor-specific controls (U69,593, DAMGO, and DPDPE for KOR, MOR, and DOR, respectively) were prepared at 10× the desired final concentration in 1% DMSO/assay buffer, aliquoted into a 96-well polystyrene plate, and warmed to 37° C. After the dye-loading incubation period, pretreatment solution was added to each well (25 μL of 9% DMSO/assay buffer) and, after 15 min, the plate was read with a FlexStation II (Molecular Devices). Calcium-mediated changes in fluorescence were monitored every 1.52 seconds over a 60 second time period, with the FlexStation II adding 50 μL of test compounds at the 19 second time point (excitation at 485 nm, detection at 525 nm). Peak kinetic reduction (SoftMax, Molecular Devices) relative fluorescence units (RFU) were used to calculate % control agonist Emax with the equation % Emax=(test compound RFU/control agonist RFU)×100. For the antagonist screens, the same procedure was followed except that the pretreatment solution consisted of the test compounds (prepared at […] the desired final concentration in 9% DMSO/assay buffer) and the FlexStation added the EC60 concentration (prepared at 10× the desired final concentration in 1% DMSO/assay buffer) of each respective control agonist. Peak RFU were used to calculate % control EC60 inhibition with the equation % inhibition=((EC60 RFU−test compound RFU)/EC60 RFU)×100. When IC50 determinations were made, the same antagonist screen procedure was followed except that cells were pretreated with 8-pt concentration-response curves of the test compounds. Peak RFU were plotted against the log of compound concentration using non-linear regression analysis to generate IC50 values (GraphPad Prism). Each test sample was analyzed in duplicate in two independent experiments.

MOR = MOR (Homo sapiens, UniProt P35372); test: MOR calcium mobilization agonist/antagonist screen (CHO-RD-HGA16 cells); type: cell-based; parameters: host or cells: CHO-RD-HGA16; conditions: single concentration; for Emax: CHO-RD-HGA16, agonist screen, control agonist DAMGO
MOR, sequence (P35372 whole entry): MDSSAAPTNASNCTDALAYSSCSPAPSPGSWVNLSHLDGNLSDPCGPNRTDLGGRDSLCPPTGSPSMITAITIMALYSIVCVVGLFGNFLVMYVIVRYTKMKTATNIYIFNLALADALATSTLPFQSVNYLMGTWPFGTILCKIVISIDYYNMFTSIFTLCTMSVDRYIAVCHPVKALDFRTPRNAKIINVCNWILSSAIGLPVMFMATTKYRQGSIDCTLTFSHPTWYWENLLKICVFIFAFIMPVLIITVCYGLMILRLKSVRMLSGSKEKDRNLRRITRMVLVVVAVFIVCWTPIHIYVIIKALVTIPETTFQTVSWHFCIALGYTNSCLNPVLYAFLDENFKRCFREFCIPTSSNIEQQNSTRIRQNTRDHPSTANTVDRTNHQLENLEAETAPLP
Procedure: as §4

DOR [2] = biological target: T3, DOR; test: NanoBiT-based β-arrestin-2 recruitment assay, DOR; type: cell-based; parameters: expressed in transfected cells; host or cells: U87; conditions: concentration range 0.15 nM to 80 μM; reference Met-enkephalin
Procedure: as §1, §2, §3

KOR, sequence (P41145 whole entry): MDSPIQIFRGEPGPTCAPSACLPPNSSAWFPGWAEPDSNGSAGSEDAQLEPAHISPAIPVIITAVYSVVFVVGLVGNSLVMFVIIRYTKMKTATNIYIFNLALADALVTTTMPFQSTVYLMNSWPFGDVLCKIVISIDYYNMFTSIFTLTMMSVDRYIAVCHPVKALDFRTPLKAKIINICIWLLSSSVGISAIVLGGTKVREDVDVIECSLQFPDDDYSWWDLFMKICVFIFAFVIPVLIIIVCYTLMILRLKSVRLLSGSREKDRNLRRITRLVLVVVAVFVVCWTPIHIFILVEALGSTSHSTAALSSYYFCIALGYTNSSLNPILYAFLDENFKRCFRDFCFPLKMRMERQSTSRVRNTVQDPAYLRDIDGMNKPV

activation of KOR (β-arrestin recruitment) (KOR) | agonist efficacy at mACKR3 compared to CXCL-12 (mouse ACKR3) | EC50 (mouse ACKR3) [µM] | activation of NOP (β-arrestin-2 recruitment) (NOP) | IC50 (ACKR3) [µM] | Emax (DOR [1]) [%] | DOR Calcium % DPDPE Inhibition (DOR [1]; antagonist screen, vs EC60 of DPDPE) [%] | Emax (MOR) [%] | MOR Calcium % DAMGO Inhibition (MOR; antagonist screen, vs EC60 of DAMGO) [%] | activation of DOR (β-arrestin-2 recruitment) (DOR [2]) | SMILES
not active | full agonists | 22 | not active | 39.9 | 0 | 22 | 0 | 3 | not active | C/C=C1/CN2CC[C@H]1C(=O)c1[nH]c3ccccc3c1C2 [WW-1, (4E,5R)-4-ethylidene-1,4,5,7-tetrahydro-2,5-ethanoazocino[4,3-b]indol-6(3H)-one]
not active | full agonists | 0.9 | not active | 2.7 | 6 | – | 11 | – | not active | C/C=C1/CN(CCCCC)CC[C@H]1C(=O)c1cc2ccccc2[nH]1 [WW-12, [(3E,4R)-3-ethylidene-1-pentylpiperidin-4-yl](1H-indol-2-yl)methanone]
